Data from PubChem BioAssay (NCI).
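Growth conditions: 96-well plates. Treatment: test compound, 48 hours, 5 concentrations. Analysis: linear interpolation between bracketing concentrations; unreached endpoints set to highest concentration. GI50 marks 50% less growth. TGI: concentration producing complete growth inhibition.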

Tests used:
Experiment in all cases: NCI tumour cell line growth inhibition, 48 h
[1] = system: OVCAR-8 ovarian
[2] = system: COLO 205 colon
[3] = system: SF-268 CNS
[4] = system: SNB-19 CNS
[5] = system: SN12C renal
[6] = system: SNB-75 CNS
[7] = system: M14 melanoma
[8] = system: NCI-H522 lung
[9] = system: SF-295 CNS
[10] = system: K-562 leukemia
[11] = system: RXF 393 renal
[12] = system: RPMI-8226 leukemia
[13] = system: MOLT-4 leukemia
[14] = system: UACC-257 melanoma
[15] = system: SK-OV-3 ovarian
[16] = system: IGROV1 ovarian
[17] = system: HT29 colon
[18] = system: OVCAR-5 ovarian
[19] = system: NCI/ADR-RES ovarian
[20] = system: SW-620 colon
[21] = system: A549 NSCLC
[22] = system: NCI-H460 lung
[23] = system: ACHN renal
[24] = system: SF-539 CNS
[25] = system: OVCAR-4 ovarian
[26] = system: 786-0 renal
[27] = system: UO-31 renal
[28] = system: CAKI-1 renal

`COc1ccc(/C(COc2ccc3c(=O)cc(-c4ccccc4)oc3c2)=N\O)cc1` showed a GI50 [1] of 21.4 µM, a TGI [1] of over 35.5 µM and a GI50 [2] of 26.5 µM. It also gave a TGI [2] of over 50 µM, a GI50 [3] of 11.3 µM and a TGI [3] of over 36.8 µM. For the same compound, the GI50 [4] was 18.7 µM, the TGI [4] was over 50 µM and the GI50 [5] was 9.36 µM. It also gave a TGI [5] of 36.4 µM, a GI50 [6] of over 31.8 µM and a TGI [6] of over 45.9 µM. It also gave a GI50 [7] of 29.1 µM, a TGI [7] of over 50 µM and a GI50 [8] of 7.32 µM. It also gave a TGI [8] of 26.6 µM, a GI50 [9] of 12.5 µM and a TGI [9] of 42.8 µM. For the same compound, the GI50 [10] was 17.5 µM, the TGI [10] was over 50 µM and the GI50 [11] was 15.8 µM. The TGI [11] was over 50 µM, the GI50 [12] was 22.3 µM and the TGI [12] was over 50 µM. The GI50 [13] was over 50 µM, the TGI [13] was over 50 µM and the GI50 [14] was 19.6 µM. It also gave a TGI [14] of over 35.5 µM, a GI50 [15] of 16.1 µM and a TGI [15] of 48.4 µM. The GI50 [16] was 16.6 µM, the TGI [16] was over 47.6 µM and the GI50 [17] was 25.6 µM. It also gave a TGI [17] of over 50 µM, a GI50 [18] of 0.402 µM and a TGI [18] of over 10.2 µM. The GI50 [19] was 15.4 µM, the TGI [19] was over 50 µM and the GI50 [20] was over 35.6 µM. The TGI [20] was over 50 µM, the GI50 [21] was 20.1 µM and the TGI [21] was over 50 µM. For the same compound, the GI50 [22] was 13.3 µM, the TGI [22] was over 50 µM and the GI50 [23] was 9.5 µM. For the same compound, the TGI [23] was 19 µM, the GI50 [24] was 12.8 µM and the TGI [24] was 24.3 µM. It also gave a GI50 [25] of 21.5 µM, a TGI [25] of over 41.5 µM and a GI50 [26] of 17.2 µM. The TGI [26] was over 50 µM, the GI50 [27] was 13.5 µM and the TGI [27] was over 50 µM. For the same compound, the GI50 [28] was 1.83 µM.
